Laboratory results published in publication PMC5298241, “Mitochondria-penetrating peptides conjugated to desferrioxamine as chelators for mitochondrial labile iron” (PLoS ONE, 2017).
Where two headings read alike, the source gives them in different places. Numbered stars: 1 amine (or outer) side, 2 acyl side, 3 side chain; on linkers, the order of the positions; unused ones are H or OH. Square brackets hold non-standard residues; d marks the D form. Peptide text beside a SMILES is read from it. * marks the point of attachment. 5TAMRA = CN(C)c1ccc2c(c1)Oc1cc(N(C)C)ccc1C21OC(=O)c2cc(C(=O)*)ccc21; DFO = CC(=O)N(O)CCCCCNC(=O)CCC(=O)N(O)CCCCCNC(=O)CCC(=O)N(O)CCCCCN*; Cha = N[C@@H](CC1CCCCC1)C(=O)O; Suc = O=C(CCC(=O)[*:2])[*:1]

What was measured:
A2780 cells [1] = assay: cells; conditions: Homo sapiens, A2780, 24 h
Description: (§1) A2780 (human ovarian cancer) cell line was obtained from Fox Chase Cancer Center (USA) and cultured in RPMI-1640 medium supplemented with 10% FBS and 1% penicillin/streptomycin. Cells were incubated at 37°C in a humidified incubator with a 5% CO2.
(§2) A2780 cells were plated in 96-well flat-bottom tissue culture plates (Starstedt) at 25,000 cells per well. The culture medium was removed, and cells were washed. Cellular viability was analyzed after an overnight incubation at 37°C with 5% CO2 using the CCK-8 viability dye (Dojindo, Rockville, Maryland) at an absorbance of 450 nm. From the resulting dose-response curves, 50% growth inhibitory concentration (IC50) values were determined by interpolation [22].

[2] = Antioxidant activity (iron-catalysed oxidation of DHR by ascorbate); assay type: biochemical; conditions: 20 μM chelator, 40 μM ascorbic acid, 50 μM DHR in HBS; Fe(NTA) or serum of iron-overloaded patients; 37°C, slopes 15−40 min
Description: The standard ferric nitrilotriacetate (Fe(NTA)) complex (1:3 Fe:NTA molar ratio) was prepared by adding FAS to a stock solution of aqueous NTA, and allowed to react for 1 h at 37°C under air so that iron is oxidized to Fe(III) (evidenced by the change of color to deep yellow). Then, 180 μL of a mixture of 40 μM ascorbic acid, 50 μM DHR, and 20 μM chelators (DFO, DFO-Tat, DFO-1A, DFO-SS02 e DFO-SS20) in HBS was placed in a 96-well microplate and treated with 20 μL of either Fe(NTA) at different concentrations or sera from iron overloaded patients. Assays were performed in duplicate. Sera samples were furnished by Dr. Nelson Hamerschlak, Albert Einstein Hospital, São Paulo. Fluorescence was measured in a BMG FluoStar Optima instrument for 60 min at 37°C (λexc/λem = 485/520 nm). The slopes (indicating rate of oxidation, presented in fluorescence units per minute) of the oxidation curves were calculated in the time range 15−40 min and were plotted against iron concentration.

A2780 cells [3] = tested on: A2780 cells
Description: as §1, §2

[4] = tested on: mitochondria of A2780 cells; assay: Mitochondrial localization (colocalization with MitoTracker Deep Red); assay type: cell-based, human; conditions: TAMRA-labeled mtDFO 1–10 μM, 1 h, MitoTracker Deep Red 30 min, epifluorescence microscopy, ImageJ
Description: A2780 cells were seeded in an imaging dish in 2 mL of growth medium at 60% confluence. The growth medium was swapped with premixed medium containing 1–10 μM of TAMRA-mtDFO, and the cells were allowed to incubate with the dye for 1 h. MitoTracker Deep Red was added to the cells at 1.0–4.0 μM concentrations and allowed to incubate for 30 min. At the end of the incubation period, the medium was aspirated, and the cells were washed with 3 × 1 mL PBS and incubated with 2 mL of dye-free DMEM. The imaging experiments were performed using a Zeiss Axiovert 200M inverted epifluorescence microscope equipped with an EM-CCD digital camera (Hamamatsu) and a MS200 XY Piezo Z stage (Applied Scientific Instruments). The light source was an X-Cite 120 metal-halide lamp (EXFO), and the fluorescence images were obtained with an oil-immersion objective at 63× magnification. The microscope was operated by the Volocity software program of Perkin-Elmer. Colocalization of the dyes was quantitated using the program ImageJ using a previously described protocols.

[5] = A2780 cells, 24 h (overnight incubation at 37°C, 5% CO2), CCK-8 viability dye, absorbance 450 nm, interpolation of dose-response curves, average ± s.d. of at least three independent experiments

Compound: CC(=O)N(O)CCCCCNC(=O)CCC(=O)N(O)CCCCCNC(=O)CCC(=O)N(O)CCCCCN [DFO, Desferrioxamine]
- IC50 (A2780 cells [1]): 1450 ± 130 µM
- Suppression of iron-catalysed oxidation of the DHR probe [2]: efficiently suppressed

Compound: CC(=O)N(O)CCCCCNC(=O)CCC(=O)N(O)CCCCCNC(=O)CCC(=O)N(O)CCCCCNC(=O)CCC(=O)N[C@@H](CC1CCCCC1)C(=O)N[C@H](CCCNC(=N)N)C(=O)N[C@@H](CC1CCCCC1)C(=O)N[C@@H](CCCCN)C(=O)N[C@@H](CC1CCCCC1)C(=O)N[C@H](CCCNC(=N)N)C(=O)N[C@@H](CC1CCCCC1)C(=O)N[C@@H](CCCCN)C(=O)N[C@@H](CCCCNC(=O)c1ccc2c(c1)C(=O)OC21c2ccc(N(C)C)cc2Oc2cc(N(C)C)ccc21)C(N)=O [DFO-1A-TAMRA] ({DFO-Suc}-[Cha][dR][Cha]K[Cha][dR][Cha]KK(5TAMRA)-NH2)
- IC50 (A2780 cells [3]; 24 h): 2.97 ± 1.06 µM

Compound: CC(=O)N(O)CCCCCNC(=O)CCC(=O)N(O)CCCCCNC(=O)CCC(=O)N(O)CCCCCNC(=O)CCC(=O)N[C@@H](CC1CCCCC1)C(=O)N[C@H](CCCNC(=N)N)C(=O)N[C@@H](CC1CCCCC1)C(=O)N[C@@H](CCCCN)C(=O)N[C@@H](CC1CCCCC1)C(=O)N[C@H](CCCNC(=N)N)C(=O)N[C@@H](CC1CCCCC1)C(=O)N[C@@H](CCCCN)C(N)=O [DFO-1A] ({DFO-Suc}-[Cha][dR][Cha]K[Cha][dR][Cha]K-NH2)
- IC50 (A2780 cells [3]; 24 h): 108 ± 2.51 µM

Compound: CC(=O)N(O)CCCCCNC(=O)CCC(=O)N(O)CCCCCNC(=O)CCC(=O)N(O)CCCCCNC(=O)CCC(=O)N[C@@H](Cc1c(C)cc(O)cc1C)C(=O)N[C@H](CCCNC(=N)N)C(=O)N[C@@H](Cc1ccccc1)C(=O)N[C@@H](CCCCN)C(N)=O [DFO-SS02]
- IC50 (A2780 cells [3]; [5]): 42.9 ± 1.06 µM

Compound: CC(=O)N(O)CCCCCNC(=O)CCC(=O)N(O)CCCCCNC(=O)CCC(=O)N(O)CCCCCNC(=O)CCC(=O)N[C@@H](Cc1ccccc1)C(=O)N[C@H](CCCNC(=N)N)C(=O)N[C@@H](Cc1ccccc1)C(=O)N[C@@H](CCCCN)C(=O)N[C@@H](CCCCNC(=O)c1ccc2c(c1)C(=O)OC21c2ccc(N(C)C)cc2Oc2cc(N(C)C)ccc21)C(N)=O [DFO-SS20-TAMRA] ({DFO-Suc}-F[dR]FKK(5TAMRA)-NH2)
- IC50 (A2780 cells [3]; 24 h): 7.91 ± 1.19 µM

Compound: CC(=O)N(O)CCCCCNC(=O)CCC(=O)N(O)CCCCCNC(=O)CCC(=O)N(O)CCCCCNC(=O)CCC(=O)N[C@@H](Cc1ccccc1)C(=O)N[C@H](CCCNC(=N)N)C(=O)N[C@@H](Cc1ccccc1)C(=O)N[C@@H](CCCCN)C(N)=O [DFO-SS20] ({DFO-Suc}-F[dR]FK-NH2)
- IC50 (A2780 cells [3]; 24 h): 62.4 ± 1.13 µM

Compound: CC(=O)N(O)CCCCCNC(=O)CCC(=O)N(O)CCCCCNC(=O)CCC(=O)N(O)CCCCCNC(=O)CCC(=O)N[C@@H](CCCNC(=N)N)C(=O)N[C@@H](CCCCN)C(=O)N[C@@H](CCCCN)C(=O)N[C@@H](CCCNC(=N)N)C(=O)N[C@@H](CCCNC(=N)N)C(=O)N[C@@H](CCC(N)=O)C(=O)N[C@@H](CCCNC(=N)N)C(=O)N[C@@H](CCCNC(=N)N)C(=O)N[C@@H](CCCNC(=N)N)C(=O)O [DFO-TAT]
- IC50 (A2780 cells [3]; [5]): 111 ± 1.17 µM

Compound: carboxy-tetramethylrhodamine [TAMRA]
- Rr = Pearson correlation coefficient (colocalization with MitoTracker) [4]: does not locate by itself in the mitochondria
